From the CheMixHub viscosity set

Test: xn = mol fraction of the nth substance listed

COC(C)(C)C + CC(C)O
101 kPa
Settings	viscosity [mPa·s]
293.15 K, x1 = 0.0305	2.145
298.15 K, x1 = 0.0702	1.595
303.15 K, x1 = 0.0702	1.395
308.15 K, x1 = 0.0914	1.145

COCCOCCOCCOCCOC + CC(C)O
viscosity [mPa·s], 101 kPa
Settings	x1 = 0.0021	x1 = 0.0042	x1 = 0.00994	x1 = 0.014	x1 = 0.0152	x1 = 0.025	x1 = 0.0355	x1 = 0.0719	x1 = 0.0734	x1 = 0.0994
298.15 K	2.074	2.059	2.022	1.999	1.996	1.934	1.941	1.86	1.883	1.83
308.15 K	1.555	1.549	1.53	1.52	1.52	1.512	1.484	1.465	1.489	1.444
318.15 K	1.188	1.185	1.179	1.177	1.18	1.18	1.172	1.163	1.167	1.159

CC(O)C(=O)O (stereo not drawn) + CC(C)[C@@H]1CC[C@@H](C)C[C@H]1O
100 kPa, x2 = 0.67
Settings	viscosity [mPa·s]
293.15 K	370.9
298.15 K	218.9
303.15 K	134.3
308.15 K	86.53
313.15 K	58.84
318.15 K	40.71
323.15 K	29.47

CCc1ccccc1 + CCC(C)=O
298.15 K, 101.33 kPa
Settings	viscosity [mPa·s]
x1 = 0.0811	0.397
x1 = 0.1608	0.416
x1 = 0.2397	0.433
x1 = 0.347	0.459
x1 = 0.4606	0.487
x1 = 0.5818	0.516
x1 = 0.7041	0.548
x1 = 0.8394	0.587

Clc1ccccc1 + CCC(C)=O
303.15 K, 101 kPa
Settings	viscosity [mPa·s]
x2 = 0.0982	0.686
x2 = 0.247	0.636
x2 = 0.3771	0.593
x2 = 0.5481	0.541
x2 = 0.6776	0.499
x2 = 0.8508	0.482

COC(C)(C)C + CCC(C)O
298.15 K, 101 kPa
Settings	viscosity [mPa·s]
x1 = 0.0999	2.16
x1 = 0.1992	1.57
x1 = 0.2992	1.16
x1 = 0.3976	0.91
x1 = 0.503	0.725
x1 = 0.6017	0.609
x1 = 0.6989	0.518
x1 = 0.7986	0.443
x1 = 0.8979	0.384

COCCOCCOCCOCCOC + CCC(C)O
viscosity [mPa·s]
Settings	298.15 K	308.15 K	318.15 K	323.15 K
101 kPa, x1 = 0.0018	3.082	2.157	1.554	–
101 kPa, x1 = 0.0046	3.032	2.132	1.544	–
101 kPa, x1 = 0.0146	2.91	2.069	1.515	–
101 kPa, x1 = 0.0257	2.787	2.024	1.493	–
101 kPa, x1 = 0.0738	2.439	1.834	1.408	–
101 kPa, x1 = 0.0988	–	1.777	1.368	–
101.3 kPa, x2 = 0.5011	–	–	–	1.495
101.3 kPa, x2 = 0.6997	–	–	1.445	–
